Source: patent US8884030B2, “Inhibitors of Flaviviridae viruses” (priority 2010, dated 2014)

test system: human hepatoma Huh-7 cell line harboring a HCV replicon; experiment: HCV replicon assay (inhibition of viral replication, luciferase); assay type: cell-based; details: Hepatitis C virus, 72 h; 2 μM; Huh-7 HCV replicon cells, 3 days incubation; inhibition of viral replication; read-out: % inhibition at 2 μM
Procedure, shortened: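 Huh-7 replicon cells (1600/well) exposed 3 days at 37 °C to 10-point 3-fold dilutions, 0.44% DMSO. Replication measured by Dual-Glo luciferase, background from ITMN-191 wells; cytotoxicity by calcein AM. EC50/CC50 from Hill fit; % inhibition at fixed concentration derivable from fit.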

SMILES	inhibition at 2 µM [%]
CC1CCC(C(=O)N(c2cc(C#CC(C)(C)C)sc2C(=O)O)C2CCC(=NOCc3ccc(S(C)(=O)=O)cc3)CC2)CC1 (stereo not shown) [Compound 121, 3-(N-(4-(4-(Methylsulfonyl)benzyloxyimino)cyclohexyl)-4-methylcyclohexanecarboxamido)-5-(3,3-dimethylbut-1-ynyl)thiophene-2-carboxylic acid]	99.9
CC1CCC(C(=O)N(c2cc(C#CC(C)(C)C)sc2C(=O)O)N(C)C2CCC3(CC2)OCCO3)CC1 (stereo not shown) [Compound 122]	99.7
CC1CCC(C(=O)N(c2cc(C#CC(C)(C)C)sc2C(=O)O)N(C)[C@H]2CC[C@@H](O)CC2)CC1 (stereo partly shown) [Compound 123, 3-(2-(4-hydroxycyclohexyl)-2-methyl-1-(4-methylcyclohexanecarbonyl)hydrazinyl)-5-(3,3-dimethylbut-1-ynyl)thiophene-2-carboxylic acid]	99.9
CC1CCC(C(=O)N(c2cc(C#CC(C)(C)C)sc2C(=O)O)N(C)C2CCN(C(=O)OC(C)(C)C)CC2)CC1 (stereo not shown) [Compound 127, 4-[N′-[2-carboxy-5-(3,3-dimethyl-but-1-ynyl)-thiophen-3-yl]-N-methyl-N′-(4-methyl-cyclohexanecarbonyl)-hydrazino]-piperidine-1-carboxylic acid tert-butyl ester]	98.3
CC1CCC(C(=O)N(c2cc(C#CC(C)(C)C)sc2C(=O)O)N(C)C2CCNCC2)CC1 (stereo not shown) [Compound 128, 5-(3,3-dimethyl-but-1-ynyl)-3-[N′-methyl-N-(4-methyl-cyclohexanecarbonyl)-N′-piperidin-4-yl-hydrazino]-thiophene-2-carboxylic acid]	99.8
CC1CCC(C(=O)N(c2cc(C#CC(C)(C)C)sc2C(=O)O)N(C)C2CCN(C)CC2)CC1 (stereo not shown) [Compound 129, 5-(3,3-dimethyl-but-1-ynyl)-3-[N′-methyl-N-(4-methyl-cyclohexanecarbonyl)-N′-(1-methyl-piperidin-4-yl)-hydrazino]-thiophene-2-carboxylic acid]	100
CC1CCC(C(=O)N(c2cc(C#CC(C)(C)C)sc2C(=O)O)N(C)CCOc2cccnc2)CC1 (stereo not shown) [Compound 130, 5-(3,3-dimethyl-but-1-ynyl)-3-{N′-methyl-N-(4-methyl-cyclohexanecarbonyl)-N′-[2-(pyridin-3-yloxy)-ethyl]-hydrazino}-thiophene-2-carboxylic acid]	98.7
CC1CCC(C(=O)N(c2cc(C#CC(C)(C)C)sc2C(=O)O)N(C)CC2CCOCC2)CC1 (stereo not shown) [Compound 131, 5-(3,3-dimethyl-but-1-ynyl)-3-[N′-methyl-N-(4-methyl-cyclohexanecarbonyl)-N′-(tetrahydro-pyran-4-ylmethyl)-hydrazino]-thiophene-2-carboxylic acid]	99.9
CC1CCC(C(=O)N(c2cc(C#CC(C)(C)C)sc2C(=O)O)N(C)CCOc2ccccn2)CC1 (stereo not shown) [Compound 132, 5-(3,3-dimethyl-but-1-ynyl)-3-{N′-methyl-N-(4-methyl-cyclohexanecarbonyl)-N′-[2-(pyridin-2-yloxy)-ethyl]-hydrazino}-thiophene-2-carboxylic acid]	77.4
CC1CCC(C(=O)N(NCCOc2cccnc2)c2cc(C#CC(C)(C)C)sc2C(=O)O)CC1 (stereo not shown) [Compound 133, 5-(3,3-dimethyl-but-1-ynyl)-3-{N-(4-methyl-cyclohexanecarbonyl)-N′-[2-(pyridin-3-yloxy)-ethyl]-hydrazino}-thiophene-2-carboxylic acid]	96.7
CC1CCC(C(=O)N(c2cc(C#CC(C)(C)C)sc2C(=O)O)N(CCO)C2COC2)CC1 (stereo not shown) [Compound 134, 5-(3,3-dimethyl-but-1-ynyl)-3-[N′-(2-hydroxy-ethyl)-N-(4-methyl-cyclohexanecarbonyl)-N′-oxetan-3-yl-hydrazino]-thiophene-2-carboxylic acid]	99
CC1CCC(C(=O)N(c2cc(C#CC(C)(C)C)sc2C(=O)O)N(C)CCO)CC1 (stereo not shown) [Compound 135, 5-(3,3-dimethyl-but-1-ynyl)-3-[N′-(2-hydroxy-ethyl)-N′-methyl-N-(4-methyl-cyclohexanecarbonyl)-hydrazino]-thiophene-2-carboxylic acid]	99.8
CC1CCC(C(=O)N(c2cc(C#CC(C)(C)C)sc2C(=O)O)N(C)C)CC1 (stereo not shown) [Compound 136, 5-(3,3-dimethyl-but-1-ynyl)-3-[N′-dimethyl-N-(4-methyl-cyclohexanecarbonyl)-hydrazino]-thiophene-2-carboxylic acid]	98.9
CC1CCC(C(=O)N(c2cc(C#CC(C)(C)C)sc2C(=O)O)N(C)c2ccccn2)CC1 (stereo not shown) [Compound 137, 5-(3,3-dimethyl-but-1-ynyl)-3-[N′-methyl-N-(4-methyl-cyclohexanecarbonyl)-N′-pyridin-2-yl-hydrazino]-thiophene-2-carboxylic acid]	100
CC1CCC(C(=O)N(c2cc(C#CC(C)(C)C)sc2C(=O)O)C2CCN(C(=O)c3cccnc3)CC2)CC1 (stereo not shown) [Compound 140, 5-(3,3-dimethyl-but-1-ynyl)-3-{(4-methyl-cyclohexanecarbonyl)-[1-(pyridine-3-carbonyl)-piperidin-4-yl]-amino}-thiophene-2-carboxylic acid]	99.9
CC1CCC(C(=O)N(c2cc(C#CC(C)(C)C)sc2C(=O)O)C2CCN(C(=O)c3cnccn3)CC2)CC1 (stereo not shown) [Compound 141, 5-(3,3-dimethyl-but-1-ynyl)-3-{(4-methyl-cyclohexanecarbonyl)-[1′-(pyrazine-2-carbonyl)-piperidin-4-yl]-amino}-thiophene-2-carboxylic acid]	99.9
CC1CCC(C(=O)N(c2cc(C#CC(C)(C)C)sc2C(=O)O)C2CCN(C(=O)c3cccnc3)C2)CC1 (stereo not shown) [Compound 142, 5-(3,3-Dimethyl-but-1-ynyl)-3-{(4-methyl-cyclohexanecarbonyl)-[1-(pyridine-3-carbonyl)-pyrrolidin-3-yl]-amino}-thiophene-2-carboxylic acid]	99.6
CN([C@H]1CC[C@H](N(c2cc(C#CC(C)(C)C)sc2C(=O)O)C(=O)[C@H]2CC[C@H](C)CC2)CC1)S(=O)(=O)c1cccnc1 [Compound 164, 5-(3,3-dimethyl-but-1-ynyl)-3-((4-trans-methyl-cyclohexanecarbonyl)-{4-trans-[methyl-(pyridine-3-sulfonyl)-amino]-cyclohexyl}-amino)-thiophene-2-carboxylic acid]	98.9
CC(C)(C)C#Cc1cc(N(C(=O)[C@H]2CC[C@H](C)CC2)C2CCC(NS(=O)(=O)c3cccnc3)CC2)c(C(=O)O)s1 (stereo partly drawn) [Compound 165, 5-(3,3-dimethyl-but-1-ynyl)-3-{(4-trans-methyl-cyclohexanecarbonyl)-[4-(pyridine-3-sulfonylamino)-cyclohexyl]-amino}-thiophene-2-carboxylic acid]	95.7
CC1CCC(C(=O)N(c2cc(C#CC(C)(C)C)sc2C(=O)O)C2CCC(NC(=O)OC3CN(C(=O)OC(C)(C)C)C3)CC2)CC1 (stereo not shown) [Compound 186, 3-{4-[[2-carboxy-5-(3,3-dimethyl-but-1-ynyl)-thiophen-3-yl]-(4-methyl-cyclohexanecarbonyl)-amino]-cyclohexylcarbamoyloxy}-azetidine-1-carboxylic acid tert-butyl ester]	98.9
CC1CCC(C(=O)N(c2cc(C#CC(C)(C)C)sc2C(=O)O)C2CCC(NN(C)C(=O)OC3CCOCC3)CC2)CC1 (stereo not shown) [Compound 217, 5-(3,3-dimethyl-but-1-ynyl)-3-((4-methyl-cyclohexanecarbonyl)-{4-[N′-methyl-N′-(tetrahydro-pyran-4-yloxycarbonyl)-hydrazino]-cyclohexyl}-amino)-thiophene-2-carboxylic acid]	100

same assay, conditions: Hepatitis C virus, Huh-7, 72 h, read-out: % inhibition at 2 μM

SMILES	inhibition at 2 µM [%]
CC1CCC(C(=O)N(c2cc(C#CC(C)(C)C)sc2C(=O)O)C2CCC(NN(C)C(=O)Oc3ccccn3)CC2)CC1 (stereo not shown) [Compound 218, 5-(3,3-dimethyl-but-1-ynyl)-3-((4-methyl-cyclohexanecarbonyl)-{4-[N′-methyl-N′-(pyridin-2-yloxycarbonyl)-hydrazino]-cyclohexyl}-amino)-thiophene-2-carboxylic acid]	100
